We go through eight compounds from ChEMBL document CHEMBL1201862, “PubChem BioAssay data set” (2004).

Structures are written as SMILES.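 All cell lines were grown in 96-well plates and treated with compound for 48 hours. Abbreviation: GI50, concentration required for 50% inhibition of growth.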 Active and inactive are the calls of the source. Rule as the data show it: active = GI50 up to about 1.1 µM and inactive = higher. Where only a bound is given, the exact number is not on record here.

Some test systems named below: A498; ACHN; COLO 205; HCT-15; HOP-92; K562; MDA-MB-231; MDA-N; MOLT-4; NCI-H460; NCI-H522; OVCAR-5; SF-268; SF-295; SK-OV-3; SN12C; SNB-19; SR; T47D; U-251.
Holding throughout (experiment): NCI anticancer screen, dose series, 48 h

With `O=C(O)COc1cc(-c2ccccc2)nc2ccccc12`, the GI50 in the assay with A498 is 65.3 µM (inactive); with ACHN it was > 100 µM (inactive); with COLO 205, 51.1 µM (inactive); in the assay with HCT-15, 36.9 µM; with HOP-92 it was > 100 µM (inactive); with K562, 36.8 µM (inactive). Further, the GI50 in the assay with MDA-MB-231 was > 100 µM (inactive); in the assay on MDA-N, 26.1 µM (inactive); with MOLT-4, 47.2 µM (inactive); in the assay with NCI-H460, 48 µM (inactive); in the assay with NCI-H522, 77.4 µM (inactive); in the assay with OVCAR-5 it was > 100 µM (inactive). For the same compound, the GI50 in the assay with SF-268 is > 100 µM (inactive); in the assay on SF-295 it was 44.4 µM (inactive); in the assay on SK-OV-3 it was 73.3 µM (inactive); with SN12C it was > 100 µM (inactive); with SNB-19, 98.4 µM (inactive); in the assay on SR, 63 µM (inactive). Besides, the GI50 in the assay with T47D was > 100 µM (inactive); in the assay on U-251, 71.9 µM (inactive).
As for `Clc1cc(C(c2cc(Cl)sc2Cl)c2cc(Cl)sc2Cl)c(Cl)s1`, the GI50 with A498 is > 100 µM (inactive); in the assay with ACHN, > 100 µM (inactive); in the assay on COLO 205, > 100 µM (inactive); in the assay on HCT-15, more than 100 µM; in the assay with HOP-92 it was > 100 µM (inactive); in the assay on K562 it was > 100 µM (inactive). The GI50 is > 100 µM (inactive) in the assay with MDA-MB-231; > 100 µM (inactive) in the assay with MDA-N; > 81.7 µM (inactive) in the assay with MOLT-4; > 100 µM (inactive) with NCI-H460; > 100 µM (inactive) in the assay on NCI-H522; > 100 µM (inactive) in the assay on OVCAR-5. Also, the GI50 in the assay on SF-268, in the assay with SF-295, with SK-OV-3, in the assay with SN12C, in the assay on SNB-19 and in the assay on SR was > 100 µM (inactive) in each case. The GI50 in the assay on T47D and with U-251 was > 100 µM (inactive) throughout.
Turning to `CO/[N+]([O-])=C\C(=O)N/C=C/C(=O)O`, the GI50 in the assay on A498 is > 100 µM (inactive); in the assay on ACHN it was > 100 µM (inactive); in the assay on COLO 205, > 100 µM (inactive); in the assay on HCT-15, more than 100 µM; in the assay with HOP-92 it was > 100 µM (inactive); with K562, > 100 µM (inactive). The GI50 with MDA-MB-231, in the assay on MDA-N, in the assay with MOLT-4, with NCI-H460, in the assay with NCI-H522 and in the assay on OVCAR-5 was > 100 µM (inactive) in each case. Further, the GI50 in the assay on SF-268, with SF-295, in the assay with SK-OV-3, with SN12C, in the assay on SNB-19 and in the assay with SR was > 100 µM (inactive) each time. Also, the GI50 in the assay with T47D and in the assay on U-251 was > 100 µM (inactive) throughout.
Regarding `C/C(=N/NC(=S)Nc1ccc(Cl)cc1)c1cccc(/C(C)=N\NC(=S)Nc2ccc(Cl)cc2)n1`, the GI50 with A498 was 20.4 µM (inactive); in the assay with ACHN, 2.54 µM (inactive); in the assay on COLO 205 it was 3.56 µM (inactive); with HCT-15, 2.47 µM; in the assay with HOP-92, 3.17 µM (inactive); in the assay on K562, 5.02 µM (inactive). Further, the GI50 in the assay on MDA-MB-231 was 4.14 µM (inactive); in the assay with MDA-N, 17.1 µM (inactive); in the assay with MOLT-4, 2.34 µM (inactive); in the assay on NCI-H460 it was 3.49 µM (inactive); in the assay with NCI-H522, 4.29 µM (inactive); in the assay on OVCAR-5 it was 20 µM (inactive). Further, the GI50 in the assay on SF-268 is 23.8 µM (inactive); in the assay with SF-295, 3.34 µM (inactive); in the assay on SK-OV-3 it was 7.6 µM (inactive); with SN12C, 10.7 µM (inactive); with SNB-19, 9.73 µM (inactive); in the assay on SR, 1.19 µM (inactive). For the same compound, the results for the GI50 in the assay on T47D and with U-251 were 30.7 µM (inactive) and 6.3 µM (inactive), respectively.
With `CC(=O)OCC1OC(OCCCOP(=S)(OCCC#N)OCC2OC(n3ccc(N)nc3=O)C(OC(=O)c3ccccc3)C2OC(=O)c2ccccc2)C(OC(C)=O)C(OC(C)=O)C1OC(C)=O` (stereo not given), the GI50 was > 100 µM (inactive) in the assay on A498; > 100 µM (inactive) with ACHN; > 100 µM (inactive) with COLO 205; more than 100 µM in the assay with HCT-15; > 100 µM (inactive) with HOP-92; > 100 µM (inactive) in the assay on K562. Further, the GI50 with MDA-MB-231, with MDA-N, with MOLT-4, in the assay with NCI-H460, with NCI-H522 and in the assay with OVCAR-5 was > 100 µM (inactive) each time. In addition, the GI50 in the assay on SF-268, with SF-295, in the assay with SK-OV-3, in the assay with SN12C, in the assay on SNB-19 and in the assay on SR was > 100 µM (inactive) throughout. Also, the GI50 in the assay on T47D and with U-251 was > 100 µM (inactive) each time.
As for `Cc1ccc(/N=C2\C(=O)C3=C(OC(C)(C)CC3)c3ccccc32)cc1`, the GI50 was 2.06 µM (inactive) with A498; 0.313 µM (active) in the assay with ACHN; 1.69 µM (inactive) in the assay on COLO 205; 0.415 µM in the assay with HCT-15; 1.77 µM (inactive) in the assay on HOP-92; 0.197 µM (active) in the assay on K562. For the same compound, the GI50 in the assay on MDA-MB-231 is 1.68 µM (inactive); with MDA-N it was 0.183 µM (active); in the assay on MOLT-4, 0.729 µM (active); in the assay on NCI-H460 it was 1.58 µM (inactive); in the assay on NCI-H522 it was 1.25 µM (inactive); in the assay on OVCAR-5, 1.51 µM (inactive). In addition, the GI50 was 1.53 µM (inactive) in the assay on SF-268; 1.4 µM (inactive) in the assay with SF-295; 1.57 µM (inactive) in the assay with SK-OV-3; 0.505 µM (active) in the assay with SN12C; 0.851 µM (active) in the assay on SNB-19; 0.275 µM (active) in the assay with SR. In addition, the GI50 in the assay on T47D was 0.366 µM (active); with U-251 it was 0.577 µM (active).
For the compound `CCN(CC)CC1CCCCN1CC(=O)N1c2ccc(Br)cc2C(=O)Nc2cccnc21` (stereo not given), the GI50 is > 100 µM (inactive) with A498; > 100 µM (inactive) with ACHN; > 100 µM (inactive) in the assay on COLO 205; more than 100 µM with HCT-15; 80.4 µM (inactive) in the assay with HOP-92; > 100 µM (inactive) with K562. For the same compound, the GI50 in the assay with MDA-MB-231, in the assay on MDA-N, in the assay on MOLT-4, with NCI-H460, in the assay on NCI-H522 and in the assay on OVCAR-5 was > 100 µM (inactive) throughout. The GI50 in the assay with SF-268 is > 100 µM (inactive); with SF-295, > 100 µM (inactive); in the assay on SK-OV-3, > 100 µM (inactive); in the assay with SN12C it was > 100 µM (inactive); in the assay with SNB-19 it was > 100 µM (inactive); in the assay with SR it was 57 µM (inactive). For the same compound, the GI50 with T47D and in the assay on U-251 was > 100 µM (inactive) throughout.
For `CCCCCCCCC(=O)NCCN(CCN)C(=O)CCCCCCCC`, the GI50 was 21.9 µM (inactive) in the assay on A498; 8.67 µM (inactive) with ACHN; 3.29 µM (inactive) in the assay with COLO 205; 5.19 µM in the assay with HCT-15; 14 µM (inactive) with HOP-92; 2.18 µM (inactive) with K562. Further, the GI50 in the assay on MDA-MB-231 was 3.31 µM (inactive); with MDA-N it was 5.6 µM (inactive); in the assay with MOLT-4, 3.78 µM (inactive); in the assay on NCI-H460 it was 5.86 µM (inactive); in the assay with NCI-H522, 2.65 µM (inactive); in the assay on OVCAR-5 it was 15.8 µM (inactive). The GI50 was 6.87 µM (inactive) in the assay with SF-268; 4.99 µM (inactive) in the assay with SF-295; 15.5 µM (inactive) in the assay on SK-OV-3; 10.8 µM (inactive) in the assay with SN12C; 8.55 µM (inactive) with SNB-19; 2.69 µM (inactive) with SR. In addition, the GI50 was 14.9 µM (inactive) in the assay on T47D and 3.37 µM (inactive) in the assay with U-251.
